This is an account of results in a melting point compilation (Tetko et al.; mined from patent text by program, amines drawn as free bases though some values may be those of a salt).

In general, melting point refers to the temperature of the solid-liquid transition. On to `COc1cc(OC)c2cc(-c3ccc([N+](=O)[O-])cc3)oc2c1`, for which the melting point lay in the range of 192 to 193 °C.
The figure for `CCCn1nc2c(N)nc3ccccc3c2c1NCCC1CCN(S(C)(=O)=O)CC1` is 204 to 207 °C.
Under `Cc1oc(-c2ccccc2)nc1COc1ccc2cc(/C=C/C=O)oc2c1` stands 132 to 133 °C; under `Fc1ccc(C(CCCN2CCN(c3cc4ccccc4cn3)CC2)c2ccc(F)cc2)cc1`, 116 to 118 °C; under `CCOC(=O)Cc1c(C(=O)O)c2cc(Oc3ccc(C(F)(F)F)cn3)ccc2n1-c1ccc(OC(C)C)cc1`, 202 °C.
Turning to `CCC(=O)N(C(=O)CC)c1c(OCc2ccccc2)cc(Br)cc1[N+](=O)[O-]`, the melting point lay in the range of 90 to 92 °C.
Under `CCC(=O)CCCCCCCc1ccc(O)c(O)c1` stands 76 to 78 °C; under `COc1cc(C(C)C)ccc1C1(NC(=O)c2ccccc2)C(=O)c2ccccc2C1=O`, 106 to 108 °C.
For `C#CC(OC)Oc1cc(Cc2cnc(N)nc2N)cc(OC)c1OC` (stereo not drawn), the melting point is 153 to 155 °C.
Turning to `N#CCc1ccc2oc([N+](=O)[O-])c(-c3ccccc3)c2c1`, the melting point is 166 to 168 °C.
Under `CC(C)C1NCC(=O)N1CC(N)=O` (stereo not drawn) stands 64 °C; under `O=C(c1cnc(Cl)nc1C(F)(F)F)N1Cc2cccn2Cc2ccccc21`, 221 to 223 °C; under `O=C1C(=O)N(c2ccc(Cl)cc2[N+](=O)[O-])C(=O)N1c1cccc(Cl)c1`, 133 °C.
The figure for `COC1=N/C(=C\c2c[nH]c3ncc(Cl)cc23)C(=O)N1c1ccccc1` is 228 °C; for `NC(=O)c1sc2nccc(N3CCN(c4ccccc4)CC3)c2c1N` it is 250 to 252 °C.
Regarding `O=C(Cc1ccccc1Cl)c1ccc(I)cc1`, the melting point lay in the range of 105 to 106 °C.
Compound `Cc1cc(C2=NOC(c3cc(Cl)cc(Cl)c3)(C(F)(F)F)C2)ccc1C(=O)NC1CSC1` (stereo not drawn) showed a melting point of 158 to 159 °C.
As to `O=C(Nc1cccc(F)c1)NC1CCN(S(=O)(=O)c2ccccc2)CC1`, the melting point lay in the range of 186 to 188 °C.
As for `Cc1nc2c(OCc3ccccc3)cc(Br)cc2n1COCC[Si](C)(C)C`, the melting point lay in the range of 94 to 95 °C.
The figure for `CC12CC3CC(C)(C1)CC(C(=O)NCCc1cccs1)(C3)C2` is 131 to 132 °C.
The figure for `CC1CCC(C(=O)N(C)C)=C2NC=C(C(N)=O)C(=O)N21` (stereo not drawn) is 220 °C; for `Cc1nc(N)nc(N)c1-c1ccc(F)cc1Cl` it is 238 °C; for `CCc1ccc2nc(-c3ccc(-c4ccccc4)cc3)c(N)c(C(=O)O)c2c1` it is 240 to 241 °C.
Under `O=C(N[C@H]1CCN(Cc2ccccc2)C[C@H]1O)c1ccccc1O` (relative stereo) stands 127 °C.
For the compound `CS(=O)(=O)c1ccc(-c2[nH]c(Br)c(Cl)c2-c2ccc(F)cc2)cc1`, the melting point fell in the range of 206 to 209 °C.
The figure for `FC(F)(F)Sc1[nH]ccc1-c1ccc(Cl)cc1` is 44 to 46 °C; for `Nc1nc(N)c(Br)c(OCc2ccccc2)n1` it is 165 to 166 °C.
On to `O=C(CSc1n[nH]c(-c2ccco2)n1)C12CC3CC(CC(C3)C1)C2`, for which the melting point fell in the range of 177 to 178 °C.
The figure for `Nc1ccc(-c2ccccc2)cc1N` is 96 to 99 °C.
Under `Cc1cc2c3c(c1)C1(CC(=O)NC1=O)C(=O)N3CCC2` (stereo not drawn) stands 165 to 167 °C; under `COC(=O)COc1cccc2c(CCS(=O)CCc3ccccc3)c(C)oc12` (stereo not drawn), 77 to 78 °C.
`COc1cc(-c2cccc(C)c2)cc2oc(=O)c(C)c(C)c12` came in with a melting point of 114 °C.
Under `CC(=O)OC1C(OC(=O)c2cccc([N+](=O)[O-])c2)C=C(C)C(=O)CC1(C)C` (stereo not drawn) stands 108 to 110 °C.
As to `Nc1cc(C(F)(F)F)cc(C(F)(F)F)n1`, the melting point is 70.8 to 71.2 °C.
The figure for `COCCSc1cc2c(N3CCc4ccc(Cl)cc43)ncnc2cc1Cl` is 104 to 106 °C.
`COC(=O)c1c(Cl)cc(Cl)cc1NC(=O)CSc1ccc(NC(=O)Cc2ccccc2)cc1`: the melting point lay in the range of 156 to 158 °C.
`Nc1cc(Cl)cc([N+](=O)[O-])c1C(=O)O` registered a melting point of 202 to 205 °C.
Consider `CCCCCCCC(=O)SSC(=O)CCCCCCC`, for which the melting point was 36 to 38 °C.
The figure for `CCc1noc(-c2cn(-c3cccc(OCc4ccccc4)c3)cn2)n1` is 113 to 114 °C.
The compound `FC(F)(F)c1cccc(-c2cc(C(F)(F)F)n3cnc(-c4ccncc4)c3n2)c1` yielded a melting point of 258 °C.
`CCN(CC)C(=O)c1cc(-n2c(=O)cc(C(F)(F)F)[nH]c2=O)c(F)cc1Cl` returned a melting point of 253 to 254 °C.
Compound `CC(C)(c1ccccc1)C(Sc1ccc(Cl)cc1)n1ccnc1` (stereo not drawn) came in with a melting point of 77 to 79 °C.
The compound `Cc1cc(=O)n2cccc(OCc3ccc(Cl)cc3Cl)c2n1` yielded a melting point of 180 to 182 °C.
`CN1C(=O)CN2CCNC2(c2ccccc2)c2cc(Cl)ccc21` (stereo not drawn) returned a melting point of 164 to 167 °C.
Consider `C=CCNC(=S)n1nc(Oc2ncc(C(F)(F)F)cc2Cl)cc1C`, for which the melting point fell in the range of 46 to 48 °C.
The compound `COc1cc2c(cc1OC)[C@@H]1CCCC[C@@H]1N=C2c1ccc(NC(C)=O)cc1` (racemic) registered a melting point of 218 °C.
Compound `O=C1c2cc([N+](=O)[O-])cc3c(N4CCCC4)c([N+](=O)[O-])cc(c23)C(=O)N1O` showed a melting point of 249 to 250 °C.
`Cc1ccc(S(=O)(=O)Cc2ccc(C(O)(C(F)(F)F)C(F)(F)F)cc2)cc1`: the melting point amounted to 129 °C.
The figure for `CCOC(=O)C(Cc1ccccc1)C(=O)Nc1ccc(CP(=O)(OCC)OCC)cc1` (stereo not drawn) is 115 to 116 °C; for `CC(C)(CCl)C(O)C(Oc1ccc(Cl)cc1)n1ccnc1` (stereo not drawn) it is 120 to 125 °C.
Compound `O=C(Nc1ccccc1)Nc1cccc(-c2c(-c3ccccc3)cnc3c(C(F)(F)F)cccc23)c1` showed a melting point of 202 to 205 °C.
`Clc1ccc(CNc2cc(Cl)nc(Cl)n2)cc1`: the melting point lay in the range of 120 to 122 °C.
Under `COC(c1ccc(Cl)c2nc3n(c12)CCCN3c1ccc(Cl)cc1Cl)(C1CC1)C1CC1` stands 99 to 100 °C; under `COc1ccc(C2CNCc3c(C)cccc32)cc1OC` (stereo not drawn), 86 to 88 °C; under `CCCCCCCCCCCCCCCCCCN(OCCCC)C(CCCCCCCCCCCCCCCCC)P(=O)(OCCCC)OCCCC` (stereo not drawn), 38 to 40 °C.
Under `O=[N+]([O-])c1ccc(CCN2CCN(c3nsc4ccccc34)CC2)cc1` stands 99 °C; under `CC1(C)C=CN(C(=O)Nc2ccccc2)C=C1`, 128 to 130 °C; under `CCOC1CC(c2ccccc2)Oc2c1ccc1c2nc(C)n1C` (stereo not drawn), 177 to 178 °C.
Under `CCOC(=O)Cc1nn(CC(=O)Nc2ccccc2)c(=O)c2ccccc12` stands 187 °C.
For `COCOc1c(OC)cc(C=O)c2cccc(C)c12`, the melting point lay in the range of 48 to 50 °C.
`CN(CC(=O)c1cccn1Cc1ccc(Cl)cc1[N+](=O)[O-])Cc1ccccc1` yielded a melting point of 90 to 93 °C.
Consider `Cc1ccc(SCC(=O)c2cc(O)c(O)c([N+](=O)[O-])c2)cc1`, for which the melting point lay in the range of 115 to 116 °C.
The figure for `O=C(Nc1ccc(Br)c2ccccc12)c1cc(F)cc(N2CCOCC2)c1` is 187 to 189 °C; for `CC(=O)c1ccc(OCCC2CCN(c3cc(Cl)nnc3Cl)CC2)cc1` it is 99 to 100 °C.
The figure for `CN(Cc1ccc(NS(C)(=O)=O)cc1)C1CCN(c2ccc(NS(C)(=O)=O)cc2)CC1` is 177 to 179 °C; for `CS(=O)c1c(N)nc(N)nc1Cl` (stereo not drawn) it is 126 to 128 °C.
The figure for `CCOC(=O)c1cnn(-c2cccc(Cl)c2)c1Cl` is 61 to 63 °C.
The compound `CC(C)n1nc(-c2nc(C#Cc3ccccn3)c(N)nc2-c2ccccc2)ccc1=O` displayed a melting point of 246 to 247 °C.
For the compound `COC(=O)c1cc(OC)c(O)c(C23CC4CC(CC(C4)C2)C3)c1`, the melting point came to 179 °C.
The compound `CC(=O)C1=NN(c2ccc(C(=O)O)cc2C)C(=O)C1` displayed a melting point of over 250 °C.
The figure for `CCOC(=O)c1ccc(-c2cc(-c3ccc4c(c3)C(C)(C)CCC4(C)C)ccc2-c2ccccc2)cc1` is 233 to 235 °C; for `COc1cc(OC)c(S(C)(=O)=O)cc1C(=O)O` it is 292 °C.
As to `CCc1ncc(CO)c(NCc2ccc(-c3ccccc3-c3nnnn3C(c3ccccc3)(c3ccccc3)c3ccccc3)cc2)n1`, the melting point was 118 to 120 °C.
`CCc1nnc(-c2ccc(OC)cc2)c(-c2ccc(OC)cc2)n1` came in with a melting point of 73 to 75.5 °C.
`CSc1cc(C)nc(SC)c1NC(=O)CCCCCSc1nc2ccccc2o1` displayed a melting point of 120 to 121 °C.
The figure for `COc1ccc2c(c1)CCC(C(=O)O)O2` (stereo not drawn) is 131 to 135 °C; for `CC(CCCNc1ccccc1)C1CC=C2C3=C(CCC21C)C1(C)CCC(O)C(C)(C)C1CC3` (stereo not drawn) it is 178 to 180 °C; for `O=[N+]([O-])c1ccccc1OCc1ccc2ccccc2n1` it is 121 to 122 °C.
Under `CC1(C)CC(NC(=O)c2cc(N)cc(N)c2)CC(C)(C)N1` stands 188 to 190 °C; under `C(=C1CCCc2cccnc21)c1ccccc1`, 58 to 59 °C; under `CC(=O)NCC=C(c1ccc(-c2ccccc2)cc1)c1ccc(-c2ccccc2)cc1`, 246 to 249 °C.
Under `CN(C)c1ccc(-c2cc(=O)c(C(=O)O)cn2-c2ccc(F)c(N)c2)cc1` stands 198 to 201 °C; under `O=C(NCCCCCCCCNC(=O)c1ccc2c(c1)OCO2)c1ccc2c(c1)OCO2`, 179 to 180 °C.
Turning to `N#Cc1c[nH]c2cccc(O)c12`, the melting point lay within 206 to 207 °C.
Under `N#Cc1cnn2c1N(C(=O)CCl)CCC2c1cccc(C(F)(F)F)c1` (stereo not drawn) stands 157 to 159 °C.
The figure for `CSc1ccc(-c2coc3ccc(-c4nnc(C)o4)cc23)cc1OC(F)(F)F` is 185 to 186 °C; for `COc1cc([C@H](C)O)ccc1OCCCN1CCC(c2noc3cc(F)ccc23)CC1` it is 138 to 139 °C.
Under `O=C(OC1C(O)COC(Oc2ccc([N+](=O)[O-])cc2)C1OC(=O)c1ccccc1)c1ccccc1` (stereo not drawn) stands 150 to 151 °C.
